Source: the supplement of paper PMC10307832

Columns and labels:
Assay in all cases: relative viability (nuclei count vs DMSO), 5 days (fraction); higher = more cells survive
Vemurafenib + Phenformin = compound: CCCS(=O)(=O)Nc1ccc(F)c(C(=O)c2c[nH]c3ncc(-c4ccc(Cl)cc4)cc23)c1F [Vemurafenib] + N=C(N)NC(=N)NCCc1ccccc1 [Phenformin] (partner 250 µM)
How it was run: (§1)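 Values are medians from duplicate plates. Each reflects relative viability, defined as the nuclei count of treated wells over that of vehicle wells. Lung cancer cell lines in 1536-well plates were pin-tool dosed one day after seeding with one drug alone or with a fixed anchor-drug dose plus five library-drug doses (not always all listed) in √10 steps, then fixed, stained and imaged at 4× after 5 days.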

Vemurafenib + Pemetrexed = compound: CCCS(=O)(=O)Nc1ccc(F)c(C(=O)c2c[nH]c3ncc(-c4ccc(Cl)cc4)cc23)c1F [Vemurafenib] + Nc1nc2[nH]cc(CCc3ccc(C(=O)N[C@@H](CCC(=O)O)C(=O)O)cc3)c2c(=O)[nH]1 [Pemetrexed] (partner 0.2 µM)
How it was run: as §1

Vemurafenib + Tozasertib = compound: CCCS(=O)(=O)Nc1ccc(F)c(C(=O)c2c[nH]c3ncc(-c4ccc(Cl)cc4)cc23)c1F [Vemurafenib] + Cc1cc(Nc2cc(N3CCN(C)CC3)nc(Sc3ccc(NC(=O)C4CC4)cc3)n2)n[nH]1 [Tozasertib] (partner 0.1 µM)
How it was run: as §1

OSI-027 + Palbociclib = compound: COc1cccc2cc(-c3nc([C@H]4CC[C@H](C(=O)O)CC4)n4ncnc(N)c34)[nH]c12 [OSI-027] + CC(=O)c1c(C)c2cnc(Nc3ccc(N4CCNCC4)cn3)nc2n(C2CCCC2)c1=O [Palbociclib] (partner 0.5 µM)
How it was run: as §1

Cell Line | relative viability (Vemurafenib + Phenformin; first compound 0.03162 µM) | relative viability (Vemurafenib + Phenformin; first compound 0.3162 µM) | relative viability (Vemurafenib + Phenformin; first compound 1 µM) | relative viability (Vemurafenib + Pemetrexed; first compound 0.3162 µM) | relative viability (Vemurafenib + Pemetrexed; first compound 1 µM) | relative viability (Vemurafenib + Tozasertib; first compound 0.03162 µM) | relative viability (Vemurafenib + Tozasertib; first compound 0.3162 µM) | relative viability (Vemurafenib + Tozasertib; first compound 1 µM) | relative viability (OSI-027 + Palbociclib; first compound 0.01 µM) | relative viability (OSI-027 + Palbociclib; first compound 0.03162 µM) | relative viability (OSI-027 + Palbociclib; first compound 0.1 µM) | relative viability (OSI-027 + Palbociclib; first compound 0.3162 µM) | relative viability (OSI-027 + Palbociclib; first compound 1 µM) | relative viability (Vemurafenib + Pemetrexed; first compound 0.1 µM) | relative viability (Vemurafenib + Phenformin; first compound 0.1 µM) | relative viability (Vemurafenib + Pemetrexed; first compound 0.03162 µM) | relative viability (Vemurafenib + Tozasertib; first compound 0.1 µM)
PC-3 [JPC-3] | 0.482 | 0.498 | 0.513 | 0.92 | 1.25 | 0.853 | 0.904 | 0.881 | 0.535 | 0.522 | 0.563 | 0.5 | 0.439 | – | – | – | –
NCI-H1648 | – | – | – | 1.01 | 0.748 | 0.489 | 0.962 | 0.477 | 0.37 | 0.267 | – | 0.222 | 0.266 | 0.671 | – | – | –
NCI-H1651 | 0.318 | 0.325 | 0.311 | 0.508 | 0.579 | 0.605 | 0.636 | 0.57 | 0.534 | 0.502 | 0.497 | 0.459 | 0.393 | 0.626 | 0.295 | 0.555 | 0.594
NCI-H596 | 0.871 | 0.725 | 0.56 | 0.405 | 0.583 | 0.886 | 0.813 | 0.904 | – | – | – | – | – | 0.494 | 0.748 | 0.501 | 0.767
HARA | 0.434 | 0.328 | 0.323 | 0.2 | 0.246 | 0.0946 | 0.138 | 0.12 | 0.307 | 0.272 | 0.196 | 0.195 | 0.165 | 0.234 | 0.283 | 0.24 | 0.0784
NCI-H727 | 0.508 | 0.718 | 0.559 | – | – | 0.506 | 0.808 | 0.775 | 0.655 | 0.65 | 0.752 | 0.622 | 0.625 | – | – | – | 0.584
NCI-H1993 | 0.532 | 0.595 | 0.468 | 0.642 | 0.628 | 0.473 | 0.569 | 0.571 | 0.613 | 0.491 | 0.414 | 0.432 | 0.381 | – | – | 0.67 | –
HCC-366 | 0.61 | 0.247 | 0.593 | – | 0.151 | 0.0795 | 0.0563 | 0.0677 | 0.465 | 0.348 | 0.412 | 0.309 | 0.1 | 0.166 | 0.565 | 0.178 | 0.0611
EPLC-272H | 0.355 | 0.263 | 0.362 | 0.396 | 0.328 | 0.277 | 0.281 | 0.182 | 0.332 | 0.379 | 0.342 | 0.316 | 0.29 | 0.336 | 0.226 | 0.319 | 0.106
NCI-H441 | 0.952 | 0.739 | 0.744 | 0.249 | 0.27 | 0.708 | 0.476 | 0.591 | 0.165 | 0.205 | 0.178 | 0.146 | 0.166 | 0.295 | 0.856 | 0.23 | 0.561
NCI-H1793 | 0.338 | 0.333 | 0.338 | 0.749 | 1.12 | 0.288 | 0.323 | 0.264 | 0.3 | 0.3 | 0.236 | 0.187 | 0.181 | 0.602 | – | 0.797 | –
201T | 0.421 | 0.42 | 0.456 | 0.322 | 0.283 | 0.95 | 0.925 | 0.975 | 0.354 | 0.36 | 0.342 | 0.368 | 0.38 | 0.378 | 0.491 | 0.375 | 0.915
NCI-H460 | 0.495 | 0.316 | 0.52 | 0.065 | 0.0749 | 0.389 | – | 0.156 | 0.18 | 0.186 | 0.186 | 0.158 | 0.092 | 0.058 | 0.52 | 0.0604 | 0.28
NCI-H1666 | 0.549 | 0.63 | 0.604 | 0.913 | 0.843 | 0.575 | 0.801 | 0.579 | 0.691 | 0.675 | 0.65 | 0.577 | 0.671 | 0.847 | 0.594 | 0.805 | 0.549
HOP-62 | 0.628 | 0.585 | 0.595 | 0.208 | 0.354 | 0.418 | 0.332 | 0.389 | 0.475 | 0.49 | 0.418 | 0.457 | 0.287 | 0.318 | 0.651 | 0.368 | 0.372
SW 1573 | 0.386 | 0.4 | 0.395 | 0.798 | 0.832 | 0.162 | 0.193 | 0.26 | 0.388 | 0.389 | 0.356 | 0.333 | 0.216 | 0.777 | 0.308 | 0.872 | 0.192
NCI-H2085 | 0.65 | 0.683 | 0.676 | 0.585 | 1.04 | 0.754 | 0.802 | 0.508 | 0.463 | 0.515 | 0.458 | 0.428 | 0.446 | 0.6 | 0.57 | 0.764 | 0.727
ABC-1 | 0.241 | 0.276 | 0.246 | – | – | 0.151 | 0.181 | 0.202 | 0.828 | 0.531 | 0.476 | 0.444 | 0.553 | – | 0.297 | – | 0.174
LU99A | 0.887 | 0.551 | 0.783 | – | 0.199 | 0.245 | 0.316 | 0.264 | 0.382 | 0.379 | 0.304 | 0.217 | 0.237 | 0.196 | 0.841 | 0.229 | 0.256
NCI-H2009 | 0.458 | 0.343 | 0.361 | 0.869 | 0.915 | 0.698 | 0.625 | 0.648 | 0.211 | 0.237 | 0.171 | 0.173 | 0.232 | 0.897 | 0.418 | 1.13 | 0.644
